Reference: ChEMBL document CHEMBL1201862, “PubChem BioAssay data set” (2004)
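How tested: cells in 96-well plates exposed to compound for 48 hours at five concentrations. At the GI50, growth is halved.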 Calls of active or inactive are those of the source. Cut-off read from the data, not from the text of the source: active = GI50 up to about 1.1 µM and inactive = higher.

Columns and labels:
Assay in all cases: NCI-60 cell line screen, 48 h
[1] = test system: A498
[2] = test system: A549
[3] = test system: HT-29
[4] = test system: IGROV-1
[5] = test system: LOX IMVI
[6] = test system: MDA-MB-231
[7] = test system: MDA-N
[8] = test system: MOLT-4
[9] = test system: OVCAR-8
[10] = test system: RPMI-8226
[11] = test system: RXF 393
[12] = test system: SK-OV-3
[13] = test system: SNB-75
[14] = test system: T47D
[15] = test system: KM12

For Nc1nc(O)c(N)c(NCCOCP(=O)(O)O)n1, the GI50 [1] was > 100 µM (inactive), the GI50 [2] was > 100 µM (inactive) and the GI50 [3] was > 100 µM (inactive). The GI50 [4] was > 100 µM (inactive), the GI50 [5] was > 100 µM (inactive) and the GI50 [6] was > 100 µM (inactive). For the same molecule, the GI50 [7] was > 100 µM (inactive), the GI50 [8] was > 100 µM (inactive) and the GI50 [9] was > 100 µM (inactive). The GI50 [10] was > 100 µM (inactive), the GI50 [11] was > 100 µM (inactive) and the GI50 [12] was > 100 µM (inactive). For the same molecule, the GI50 [13] was > 65.6 µM (inactive) and the GI50 [14] was > 100 µM (inactive).

NS(=O)(=O)c1ccc(NC(=O)Nc2cccc3ccccc23)cc1 was tested, and the GI50 [1] was 22.5 µM (inactive), the GI50 [2] was 40.7 µM (inactive) and the GI50 [3] was 60.3 µM (inactive). For the same molecule, the GI50 [4] was 53.6 µM (inactive), the GI50 [15] was > 100 µM (inactive) and the GI50 [5] was 43.1 µM (inactive). The GI50 [6] was 19.4 µM (inactive), the GI50 [7] was 54.8 µM (inactive) and the GI50 [8] was > 100 µM (inactive). For the same molecule, the GI50 [9] was 20.9 µM (inactive), the GI50 [10] was > 100 µM (inactive) and the GI50 [11] was 30.5 µM (inactive). The GI50 [12] was 42.8 µM (inactive), the GI50 [13] was 22.5 µM (inactive) and the GI50 [14] was 33.5 µM (inactive).

With COc1cccc2c3cccc(OC)c3c3[nH]cnc3c12 the GI50 [1] was 18.1 µM (inactive), the GI50 [2] was 1.57 µM (inactive) and the GI50 [3] was 1.64 µM (inactive). For the same molecule, the GI50 [4] was 1.76 µM (inactive), the GI50 [15] was 2.02 µM (inactive) and the GI50 [5] was 1.98 µM (inactive). For the same molecule, the GI50 [6] was 1.87 µM (inactive), the GI50 [7] was 1.85 µM (inactive) and the GI50 [8] was 2.29 µM (inactive). For the same molecule, the GI50 [9] was 1.94 µM (inactive), the GI50 [10] was 2.53 µM (inactive) and the GI50 [11] was 1.78 µM (inactive). For the same molecule, the GI50 [12] was 18.7 µM (inactive), the GI50 [13] was 4.3 µM (inactive) and the GI50 [14] was 6.24 µM (inactive).

In the case of c1ccc2c3nnc(c2c1)SCCCSc1nnc(c2ccccc12)SCCCS3, the GI50 [1] is reported as 61.1 µM (inactive), the GI50 [2] is reported as 58.5 µM (inactive) and the GI50 [3] is reported as > 100 µM (inactive). For the same molecule, the GI50 [4] was 47.2 µM (inactive), the GI50 [15] was > 100 µM (inactive) and the GI50 [5] was > 100 µM (inactive). The GI50 [6] was 17.2 µM (inactive), the GI50 [7] was > 100 µM (inactive) and the GI50 [8] was > 100 µM (inactive). The GI50 [9] was 36.7 µM (inactive), the GI50 [10] was > 100 µM (inactive) and the GI50 [11] was 33.3 µM (inactive). For the same molecule, the GI50 [12] was > 100 µM (inactive), the GI50 [13] was 25.2 µM (inactive) and the GI50 [14] was > 100 µM (inactive).

In the case of C=C1[C@H](OCC(C)C)[C@@H](OC(=O)C(C)CC)[C@@H](O)C(C)(C)/C=C/[C@H](C)C(=O)[C@@]2(O)C[C@H](C)[C@H](O)[C@@H]2[C@H]1OC(=O)C(C)CC (stereo not given in full), the GI50 [1] is reported as 3.28 µM (inactive), the GI50 [2] is reported as 1.38 µM (inactive) and the GI50 [3] is reported as 2.56 µM (inactive). For the same molecule, the GI50 [4] was 7.98 µM (inactive), the GI50 [15] was 5.41 µM (inactive) and the GI50 [5] was 4.2 µM (inactive). The GI50 [6] was 4.01 µM (inactive), the GI50 [7] was 1.26 µM (inactive) and the GI50 [8] was 2 µM (inactive). For the same molecule, the GI50 [9] was 9.98 µM (inactive), the GI50 [10] was 0.516 µM (active) and the GI50 [11] was 6.14 µM (inactive). For the same molecule, the GI50 [12] was 19.7 µM (inactive), the GI50 [13] was 1.41 µM (inactive) and the GI50 [14] was > 13.1 µM (inactive).

In the case of N[C@H]1CCCC[C@@H]1N1C(=O)c2ccccc2C1(O)c1ccc(Cl)cc1 (stereo not given in full), the GI50 [1] is reported as 13.7 µM (inactive), the GI50 [2] is reported as 12.2 µM (inactive) and the GI50 [3] is reported as 4.75 µM (inactive). For the same molecule, the GI50 [4] was 12.6 µM (inactive), the GI50 [15] was 2.11 µM (inactive) and the GI50 [5] was 9.38 µM (inactive). The GI50 [6] was 12.9 µM (inactive), the GI50 [7] was 11.8 µM (inactive) and the GI50 [8] was 5.79 µM (inactive). For the same molecule, the GI50 [9] was 15.4 µM (inactive), the GI50 [10] was 2.61 µM (inactive) and the GI50 [11] was 6.07 µM (inactive). The GI50 [12] was 15.7 µM (inactive), the GI50 [13] was 1.31 µM (inactive) and the GI50 [14] was 4.99 µM (inactive).

With O=C1C(Cl)=C(N[C@@H](Cc2ccccc2)C(=O)OCc2ccccc2)C(=O)c2c(O)ccc(O)c21 the GI50 [1] was 7.33 µM (inactive), the GI50 [2] was 3.47 µM (inactive) and the GI50 [3] was 4 µM (inactive). For the same molecule, the GI50 [4] was 4.08 µM (inactive), the GI50 [15] was 4.45 µM (inactive) and the GI50 [5] was 2.99 µM (inactive). For the same molecule, the GI50 [6] was 2.55 µM (inactive), the GI50 [7] was 2.89 µM (inactive) and the GI50 [9] was 3.73 µM (inactive). For the same molecule, the GI50 [10] was > 10 µM (inactive), the GI50 [11] was 4.92 µM (inactive) and the GI50 [12] was > 10 µM (inactive). The GI50 [13] was 4.73 µM (inactive) and the GI50 [14] was > 10 µM (inactive).

For C=CCC1(OCc2ccccc2)C(=O)C(=O)OC1C1COC(C)(C)O1 (stereo not given), the GI50 [1] was > 100 µM (inactive), the GI50 [2] was > 100 µM (inactive) and the GI50 [3] was > 100 µM (inactive). For the same molecule, the GI50 [15] was > 100 µM (inactive), the GI50 [5] was > 100 µM (inactive) and the GI50 [6] was > 100 µM (inactive). For the same molecule, the GI50 [7] was > 100 µM (inactive), the GI50 [8] was > 100 µM (inactive) and the GI50 [9] was > 100 µM (inactive). The GI50 [10] was > 100 µM (inactive), the GI50 [11] was > 100 µM (inactive) and the GI50 [12] was > 100 µM (inactive). The GI50 [13] was > 100 µM (inactive) and the GI50 [14] was > 100 µM (inactive).

In the case of Cc1cn(CC2=NCCCN2)c(=O)[nH]c1=O, the GI50 [1] is reported as > 100 µM (inactive), the GI50 [2] is reported as > 100 µM (inactive) and the GI50 [3] is reported as > 100 µM (inactive). The GI50 [4] was > 100 µM (inactive), the GI50 [5] was > 100 µM (inactive) and the GI50 [6] was > 100 µM (inactive). The GI50 [7] was > 100 µM (inactive), the GI50 [8] was > 100 µM (inactive) and the GI50 [9] was > 100 µM (inactive). The GI50 [10] was > 100 µM (inactive), the GI50 [11] was > 100 µM (inactive) and the GI50 [12] was > 100 µM (inactive). For the same molecule, the GI50 [13] was > 100 µM (inactive) and the GI50 [14] was > 100 µM (inactive).

In the case of COC1C(O)C(O[C@H]2CC[C@@]3(C)C(CC[C@@H]4[C@@H]3CC[C@]3(C)[C@@H](C(C)OC5OC(CO)C(O)C(O)C5O)CC[C@]43O)C2)OC(C)C1OC1OC(CO)C(O)C(O)C1O (stereo not given in full), the GI50 [1] is reported as > 100 µM (inactive), the GI50 [2] is reported as > 100 µM (inactive) and the GI50 [3] is reported as > 100 µM (inactive). For the same molecule, the GI50 [4] was > 100 µM (inactive), the GI50 [15] was > 100 µM (inactive) and the GI50 [5] was > 100 µM (inactive). For the same molecule, the GI50 [6] was > 100 µM (inactive), the GI50 [7] was > 100 µM (inactive) and the GI50 [8] was > 100 µM (inactive). For the same molecule, the GI50 [9] was > 100 µM (inactive), the GI50 [10] was > 100 µM (inactive) and the GI50 [11] was > 100 µM (inactive). The GI50 [12] was > 100 µM (inactive), the GI50 [13] was > 100 µM (inactive) and the GI50 [14] was > 100 µM (inactive).

In the case of Nc1ncn2c(n1)nc1ccccc12, the GI50 [1] is reported as 57 µM (inactive), the GI50 [2] is reported as > 100 µM (inactive) and the GI50 [3] is reported as > 100 µM (inactive). For the same molecule, the GI50 [4] was > 100 µM (inactive), the GI50 [15] was > 100 µM (inactive) and the GI50 [6] was > 100 µM (inactive). The GI50 [7] was > 100 µM (inactive), the GI50 [8] was > 100 µM (inactive) and the GI50 [9] was > 100 µM (inactive). For the same molecule, the GI50 [10] was > 100 µM (inactive), the GI50 [11] was 18.6 µM (inactive) and the GI50 [12] was > 100 µM (inactive). For the same molecule, the GI50 [13] was 3.51 µM (inactive) and the GI50 [14] was > 100 µM (inactive).

In the case of COc1ccc(-n2nnc3c(C#N)c(C)c(-c4ccccc4)n3c2=O)cc1, the GI50 [1] is reported as 3.45 µM (inactive), the GI50 [2] is reported as 2.9 µM (inactive) and the GI50 [3] is reported as 4.42 µM (inactive). The GI50 [4] was 2.22 µM (inactive), the GI50 [15] was 2.71 µM (inactive) and the GI50 [5] was 3.31 µM (inactive). For the same molecule, the GI50 [6] was 10.3 µM (inactive), the GI50 [7] was 0.413 µM (active) and the GI50 [8] was 0.455 µM (active). The GI50 [9] was 4.92 µM (inactive), the GI50 [10] was 1.99 µM (inactive) and the GI50 [11] was 2.2 µM (inactive). For the same molecule, the GI50 [12] was 2.29 µM (inactive), the GI50 [13] was 3.2 µM (inactive) and the GI50 [14] was 1.76 µM (inactive).

In the case of COC(=O)[C@H](Cc1c[nH]c2ccccc12)NC(=O)c1ccc(CNC(=O)/C(C)=C/c2ccccc2)cc1, the GI50 [1] is reported as 22.6 µM (inactive), the GI50 [2] is reported as 75.7 µM (inactive) and the GI50 [3] is reported as > 100 µM (inactive). The GI50 [4] was 32.1 µM (inactive), the GI50 [15] was 87.7 µM (inactive) and the GI50 [5] was 44.3 µM (inactive). For the same molecule, the GI50 [6] was 17.8 µM (inactive), the GI50 [7] was 19.8 µM (inactive) and the GI50 [8] was 21.5 µM (inactive). The GI50 [9] was 66.7 µM (inactive), the GI50 [10] was 46 µM (inactive) and the GI50 [11] was < 0.01 µM (active). The GI50 [12] was > 100 µM (inactive), the GI50 [13] was 0.497 µM (active) and the GI50 [14] was 3.7 µM (inactive).
